Source: US7550458B2, “Tricycloundecane compounds useful as modulators of nuclear hormone receptor function” (Bristol-Myers Squibb Company, priority 2005, dated 2009)
Where two headings read alike, the source gives them in different places.

Tests used:
[1] = molecular target: T1, AR (Rattus norvegicus, UniProt P15207)
T1 sequence (P15207 1-902): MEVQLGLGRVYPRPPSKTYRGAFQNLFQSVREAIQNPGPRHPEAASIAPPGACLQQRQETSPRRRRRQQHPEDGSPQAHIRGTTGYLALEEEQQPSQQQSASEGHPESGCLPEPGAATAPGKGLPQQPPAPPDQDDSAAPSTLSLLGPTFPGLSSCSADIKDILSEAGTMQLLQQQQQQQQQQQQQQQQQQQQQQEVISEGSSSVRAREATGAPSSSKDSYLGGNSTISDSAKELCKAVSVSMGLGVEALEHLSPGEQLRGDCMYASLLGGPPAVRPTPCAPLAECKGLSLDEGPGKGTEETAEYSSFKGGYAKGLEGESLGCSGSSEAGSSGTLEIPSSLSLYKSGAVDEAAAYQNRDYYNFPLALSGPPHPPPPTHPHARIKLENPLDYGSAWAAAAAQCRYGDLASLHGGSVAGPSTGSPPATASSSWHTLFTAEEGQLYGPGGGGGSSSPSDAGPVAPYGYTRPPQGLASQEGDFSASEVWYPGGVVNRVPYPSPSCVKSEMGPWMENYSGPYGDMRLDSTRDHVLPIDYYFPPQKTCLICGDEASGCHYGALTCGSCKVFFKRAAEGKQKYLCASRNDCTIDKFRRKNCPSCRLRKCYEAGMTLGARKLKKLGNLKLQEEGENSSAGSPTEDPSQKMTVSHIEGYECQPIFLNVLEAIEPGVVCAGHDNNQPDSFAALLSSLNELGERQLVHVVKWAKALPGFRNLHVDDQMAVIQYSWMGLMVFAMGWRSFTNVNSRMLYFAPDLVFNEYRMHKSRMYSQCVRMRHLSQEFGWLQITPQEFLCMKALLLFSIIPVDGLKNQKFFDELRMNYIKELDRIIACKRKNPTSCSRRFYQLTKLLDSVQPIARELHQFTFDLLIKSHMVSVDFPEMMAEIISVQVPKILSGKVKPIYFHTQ

[2] = molecular target: T1, AR; conditions: castrated rats, dosing for 3 days
[3] = system: wild type AR; assay: AR whole cell binding assay, saturation analysis, MDA 453 cells; design: species or system human; conditions: read-out: Kd for [^3H]-DHT, Scatchard analysis
[4] = molecular target: glucocorticoid receptor (Homo sapiens, UniProt P04150); conditions: at a concentration of ≦10 μM, A549 cells
Protocol: Cells are plated the day before the assay at approximately 40000 cells/well. […] Activity is measured by analysis in a luminometer as compared to control experiments treated with buffer or dexamethasome.

glucocorticoid receptor, sequence (P04150 whole entry): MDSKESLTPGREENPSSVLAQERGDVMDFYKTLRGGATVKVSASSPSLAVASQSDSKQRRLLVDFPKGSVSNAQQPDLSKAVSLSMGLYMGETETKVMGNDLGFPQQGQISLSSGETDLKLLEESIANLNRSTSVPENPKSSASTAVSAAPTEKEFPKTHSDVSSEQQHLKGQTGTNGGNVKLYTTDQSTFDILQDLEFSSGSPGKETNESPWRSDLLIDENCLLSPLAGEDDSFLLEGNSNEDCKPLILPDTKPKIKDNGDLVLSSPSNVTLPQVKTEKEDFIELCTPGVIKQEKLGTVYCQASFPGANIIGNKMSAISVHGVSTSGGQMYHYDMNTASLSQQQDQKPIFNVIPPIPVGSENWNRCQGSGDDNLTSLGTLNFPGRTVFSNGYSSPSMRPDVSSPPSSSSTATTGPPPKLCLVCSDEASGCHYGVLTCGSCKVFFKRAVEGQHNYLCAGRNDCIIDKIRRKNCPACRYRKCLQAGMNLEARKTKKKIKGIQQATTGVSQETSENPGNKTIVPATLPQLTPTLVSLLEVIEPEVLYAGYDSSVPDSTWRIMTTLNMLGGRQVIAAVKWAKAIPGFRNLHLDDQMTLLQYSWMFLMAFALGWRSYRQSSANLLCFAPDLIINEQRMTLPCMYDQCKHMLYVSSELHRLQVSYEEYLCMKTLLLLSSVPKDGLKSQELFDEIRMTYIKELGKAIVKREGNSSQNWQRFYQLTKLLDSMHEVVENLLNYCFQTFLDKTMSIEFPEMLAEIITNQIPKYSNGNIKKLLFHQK

`CCC(=O)O[C@H]1CC[C@H]2[C@@H]3CCC4=CC(=O)CC[C@]4(C)[C@H]3CC[C@]12C` [TP, testosterone propionate] was tested, and the “ED80 of TP” value ([1]; immature castrated rat model) was 0.1 mg, the “EC50 (increase in organ weight)” value ([1]; immature castrated rats, dosing for 3 days) was about 0.03 mg and the “EC50 (increase in organ weight)” value [2] was about 0.03 mg.
For `C[C@@H]1C[C@H]2[C@@H]3CCC4=CC(=O)C=C[C@]4(C)[C@@]3(F)[C@@H](O)C[C@]2(C)[C@@]1(O)C(=O)CO` [dexamethasone], the “suppression of activity (% inhibition of the reporter system vs buffer control with 10 ng/ml PMA)” value [4] was about 65%.
